In general, IC50 refers to the concentration that inhibits the measured activity by half.

For 30 molecules, IC50 results are on record in patent US20080176827A1, “New Pyridine Analogues VII 543” (ASTRAZENECA AB, priority 2007, published 2008).

For one assay, the target named is T1, P2Y12 receptor (Homo sapiens, UniProt Q9H244).
T1 construct: expressed in transfected cells; host or cells: CHO cells (membranes)
T1 sequence (Q9H244 whole entry): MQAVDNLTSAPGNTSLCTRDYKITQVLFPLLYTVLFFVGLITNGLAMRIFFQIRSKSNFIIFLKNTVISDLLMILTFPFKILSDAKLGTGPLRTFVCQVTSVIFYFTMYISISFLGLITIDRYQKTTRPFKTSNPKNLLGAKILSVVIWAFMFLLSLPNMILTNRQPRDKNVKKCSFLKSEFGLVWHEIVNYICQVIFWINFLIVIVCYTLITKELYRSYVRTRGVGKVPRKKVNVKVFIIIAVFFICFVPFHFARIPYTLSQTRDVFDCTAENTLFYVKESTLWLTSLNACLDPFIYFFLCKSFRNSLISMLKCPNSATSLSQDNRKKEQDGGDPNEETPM
Kind of assay: Functional inhibition of 2-Me-S-ADP induced P2Y12 signalling (35S-GTPγS binding, membranes from P2Y12 transfected CHO-cells). The format is biochemical. The following applies: EC80 agonist, CHO-cell membranes, read-out: IC50. How it is done: Functional inhibition of-the P2Y12 receptor can be measured by in vitro assays using cell membranes from P2Y12 transfected CHO-cells, the methodology is indicated below. […] The reaction was allowed to proceed at 30° C. for 45 min. Samples were then transferred on to GF/B filters using a cell harvester and washed with wash buffer (50 mM Tris (pH 7.4), 5 mM MgCl2, 50 mM NaCl). Filters were then covered with scintilant and counted for the amount of ^35S-GTPγS retained by the filter. Maximum activity was that determined in the presence of the agonist and minimum activity in the absence of the agonist following subtraction of the value determined for non-specific activity. The effect of compounds at various concentrations was plotted according to the equation […]))) and IC50 estimated where A is the bottom plateau of the curve i.e. the final minimum y value B is the top of the plateau of the curve i.e. the final maximum y value C is the x value at the middle of the curve. […] Y is the original known y values. […] The reaction was allowed to proceed at 30° C. for 45 min. Samples were then transferred on to GF/B filters using a cell harvester and washed with wash buffer (50 mM Tris (pH 7.4), 5 mM MgCl2, 50 mM NaCl). Filters were then covered with scintilant and counted for the amount of ^35S-GTPγS retained by the filter. Maximum activity was that determined in the presence of the agonist and minimum activity in the absence of the agonist following subtraction of the value determined for non-specific activity. The effect of compounds at various concentrations was plotted according to the equation […]))) and IC50 estimated where A is the bottom plateau of the curve i.e. the final minimum y value B is the top of the plateau of the curve i.e. the final maximum y value C is the x value at the middle of the curve. […] Y is the original known y values.
In general terms: GTPγS is a poorly hydrolysed GTP analogue; its binding reports G protein activation.
Turning to `CCOC(=O)c1cc(C#N)c(N2CCC(C(=O)NS(=O)(=O)Cc3ccccc3)C(C)C2)nc1C` (stereo not shown) [Example 5, Ethyl 6-{4-[(benzylsulfonyl)carbamoyl]-3-methylpiperidin-1-yl}-5-cyano-2-methylnicotinate], the IC50 amounted to 0.07 µM.

The same assay, now with this note: EC80 agonist, CHO-cell membranes, value given in each example, read-out: GTPγS(IC50 μM).
`CCOC(=O)c1cc(C#N)c(N2CCC(CC(=O)NS(=O)(=O)Cc3ccccc3)C2)nc1C` (stereo not shown) [Example 1, Ethyl 6-(3-{2-[(benzylsulfonyl)amino]-2-oxoethyl}pyrrolidin-1-yl)-5-cyano-2-methylnicotinate]: the IC50 was 0.143 µM.
On the same count and under the same terms, under `CCOC(=O)c1cc(C#N)c(N2CCC(CC(=O)NS(=O)(=O)CCc3ccccc3)C2)nc1C` (stereo not shown) [Example 2, Ethyl 5-cyano-2-methyl-6-[3-(2-oxo-2-{[(2-phenylethyl)sulfonyl]amino}ethyl)pyrrolidin-1-yl]nicotinate] stands 0.12 µM; under `Cc1nc(N2CCC(C(=O)NS(=O)(=O)Cc3ccc(F)cc3)CC2)c(C#N)cc1C(=O)OCC(F)(F)F` [Example 3, 2,2,2-Trifluoroethyl 5-cyano-6-(4-{[(4-fluorobenzyl)sulfonyl]carbamoyl}piperidin-1-yl)-2-methylnicotinate], 0.024 µM; under `CCOC(=O)c1cc(C#N)c(N2CC(C(=O)NS(=O)(=O)Cc3cc(C)ccc3F)C2)nc1C` [Example 4, Ethyl 5-cyano-6-(3-{[(2-fluoro-5-methylbenzyl)sulfonyl]carbamoyl}azetidin-1-yl)-2-methylnicotinate], 0.018 µM.
Same read-out and setting: under `CCOC(=O)c1cc(C#N)c(N2CCC(C(=O)NS(=O)(=O)Cc3ccccc3)C(C)C2)nc1C` (stereo not shown) [Example 5, Ethyl 6-{4-[(benzylsulfonyl)carbamoyl]-3-methylpiperidin-1-yl}-5-cyano-2-methylnicotinate] stands 0.067 µM; under `CCOC(=O)c1cc(C#N)c(N2CCC(C(=O)NS(=O)(=O)Cc3ccccc3)CC2)nc1NC` [Example 6, Ethyl 6-{4-[(benzylsulfonyl)carbamoyl]piperidin-1-yl}-5-cyano-2-(methylamino)nicotinate], 0.044 µM.
The same measure, in the same setting: the value for `CCOC(=O)c1cc(C#N)c(N2CCC(C(=O)NS(=O)(=O)Cc3cc(C)ccc3F)CC2)nc1C` [Example 7, Ethyl 5-cyano-6-(4-{[(2-fluoro-5-methylbenzyl)sulfonyl]carbamoyl}piperidin-1-yl)-2-methylnicotinate] was 0.035 µM; that for `CCOC(=O)c1cc(C#N)c(N2CCC(C(=O)NS(=O)(=O)Cc3cccc(OC)c3)CC2)nc1C` [Example 8, Ethyl 5-cyano-6-(4-{[(3-methoxybenzyl)sulfonyl]carbamoyl}piperidin-1-yl)-2-methylnicotinate] was 0.074 µM.
For `CCOC(=O)c1cc(C#N)c(N2CC(C(=O)NS(=O)(=O)Cc3c(F)cccc3F)C2)nc1CC` [Example 9, Ethyl 5-cyano-6-(3-{[(2,6-difluorobenzyl)sulfonyl]carbamoyl}azetidin-1-yl)-2-ethylnicotinate], the IC50 stood at 0.046 µM.
Still for that read-out and setting: under `CCOC(=O)c1cc(C#N)c(N2CC(C(=O)NS(=O)(=O)Cc3ccc(F)c(C)c3)C2)nc1CC` [Example 10, Ethyl 5-cyano-2-ethyl-6-(3-{[(4-fluoro-3-methylbenzyl)sulfonyl]carbamoyl}azetidin-1-yl)nicotinate] stands 0.064 µM; under `CCOC(=O)c1cc(C#N)c(N2CC(C(=O)NS(=O)(=O)Cc3ccc(F)cc3Cl)C2)nc1CC` [Example 11, Ethyl 6-(3-{[(2-chloro-4-fluorobenzyl)sulfonyl]carbamoyl}azetidin-1-yl)-5-cyano-2-ethylnicotinate], 0.036 µM.
The same measure, in the same setting: the value for `CCOC(=O)c1cc(C#N)c(N2CCC(C(=O)NS(=O)(=O)Cc3cc(F)ccc3C)CC2)nc1C` [Example 12, Ethyl 5-cyano-6-(4-{[(5-fluoro-2-methylbenzyl)sulfonyl]carbamoyl}piperidin-1-yl)-2-methylnicotinate] was 0.49 µM; that for `CCOC(=O)c1cc(C#N)c(N2CCC(C(=O)NS(=O)(=O)Cc3c(F)ccc(F)c3F)CC2)nc1C` [Example 13, ethyl 5-cyano-2-methyl-6-(4-{[(2,3,6-trifluorobenzyl)sulfonyl]carbamoyl}piperidin-1-yl)nicotinate] was 0.071 µM.
As to `CCOC(=O)c1cc(C#N)c(N2CCC(C(=O)NS(=O)(=O)Cc3ccc(F)cc3F)CC2)nc1C` [Example 14, Ethyl 5-cyano-6-(4-{[(2,4-difluorobenzyl)sulfonyl]carbamoyl}piperidin-1-yl)-2-methylnicotinate], the IC50 came out at 0.016 µM.
The same measure, in the same setting: the value for `CCOC(=O)c1cc(C#N)c(N2CCC(C(=O)NS(=O)(=O)Cc3c(F)cccc3F)CC2)nc1CC` [Example 15, Ethyl 5-cyano-6-(4-{[(2,6-difluorobenzyl)sulfonyl]carbamoyl}piperidin-1-yl)-2-ethylnicotinate] was 0.048 µM.
Same read-out and setting: under `CCOC(=O)c1cc(C#N)c(N2CCC(C(=O)NS(=O)(=O)Cc3ccc(F)cc3Cl)CC2)nc1CC` [Example 16, Ethyl 6-(4-{[(2-chloro-4-fluorobenzyl)sulfonyl]carbamoyl}piperidin-1-yl)-5-cyano-2-ethylnicotinate] stands 0.211 µM; under `CCOC(=O)c1cc(C#N)c(N2CCC(C(=O)NS(=O)(=O)Cc3c(F)ccc(F)c3F)CC2)nc1CC` [Example 17, Ethyl 5-cyano-2-ethyl-6-(4-{[(2,3,6-trifluorobenzyl)sulfonyl]carbamoyl}piperidin-1-yl)nicotinate], 0.097 µM.
The same measure, in the same setting: under `CCOC(=O)c1cc(C#N)c(N2CCC(C(=O)NS(=O)(=O)Cc3ccc(F)cc3F)CC2)nc1CC` [Example 18, Ethyl 5-cyano-6-(4-{[(2,4-difluorobenzyl)sulfonyl]carbamoyl}piperidin-1-yl)-2-ethylnicotinate] stands 0.02 µM.
Regarding `CCOC(=O)c1cc(C#N)c(N2CC(C(=O)NS(=O)(=O)Cc3ccc(F)cc3F)C2)nc1C` [Example 20, Ethyl 5-cyano-6-(3-{[(2,4-difluorobenzyl)sulfonyl]carbamoyl}azetidin-1-yl)-2-methylnicotinate], the IC50 was 0.035 µM.
Same read-out and setting: under `CCOC(=O)c1cc(C#N)c(N2CC(C(=O)NS(=O)(=O)Cc3ccc(F)cc3F)C2)nc1CC` [Example 21, Ethyl 5-cyano-6-(3-{[(2,4-difluorobenzyl)sulfonyl]carbamoyl}azetidin-1-yl)-2-ethylnicotinate] stands 0.03 µM; under `CCOC(=O)c1cc(C#N)c(N2CC(C(=O)NS(=O)(=O)Cc3ccc(F)cc3)C2)nc1CC` [Example 22, Ethyl 5-cyano-2-ethyl-6-(3-{[(4-fluorobenzyl)sulfonyl]carbamoyl}azetidin-1-yl)nicotinate], 0.041 µM; under `CCOC(=O)c1cc(C#N)c(N2CC(C(=O)NS(=O)(=O)Cc3ccc(Cl)cc3)C2)nc1CC` [Example 23, Ethyl 6-(3-{[(4-chlorobenzyl)sulfonyl]carbamoyl}azetidin-1-yl)-5-cyano-2-ethylnicotinate], 0.022 µM.
Still for that read-out and setting: the value for `CCOC(=O)c1cc(C#N)c(N2CCC(C(=O)NS(=O)(=O)Cc3ccc(F)cc3)CC2)nc1CC` [Example 24, Ethyl 5-cyano-2-ethyl-6-(4-{[(4-fluorobenzyl)sulfonyl]carbamoyl}piperidin-1-yl)nicotinate] was 0.036 µM; that for `CCOC(=O)c1cc(C#N)c(N2CCC(C(=O)NS(=O)(=O)Cc3ccc(Cl)cc3)CC2)nc1CC` [Example 25, Ethyl 6-(4-{[(4-chlorobenzyl)sulfonyl]carbamoyl}piperidin-1-yl)-5-cyano-2-ethylnicotinate] was 0.04 µM; that for `CCOC(=O)c1cc(C#N)c(N2CC(C(=O)NS(=O)(=O)Cc3ccccc3F)C2)nc1C` [Example 26, Ethyl 5-cyano-6-(3-{[(2-fluorobenzyl)sulfonyl]carbamoyl}azetidin-1-yl)-2-methylnicotinate] was 0.035 µM.
On the same count and under the same terms, the value for `CCOC(=O)c1cc(C#N)c(N2CCC(C(=O)NS(=O)(=O)Cc3ccccc3F)CC2)nc1C` [Example 27, Ethyl 5-cyano-6-(4-{[(2-fluorobenzyl)sulfonyl]carbamoyl}piperidin-1-yl)-2-methylnicotinate] was 0.026 µM.
`CCOC(=O)c1cc(C#N)c(N2CCC(C(=O)NS(=O)(=O)Cc3ccccc3)C(CCC(=O)OCc3ccccc3)C2)nc1C` (stereo not shown) [Example 28, Ethyl 6-{3-[3-(benzyloxy)-3-oxopropyl]-4-[(benzylsulfonyl)carbamoyl]piperidin-1-yl}-5-cyano-2-methylnicotinate]: the IC50 came to 0.442 µM.
Still for that read-out and setting: under `CCOC(=O)c1cc(C#N)c(N2CCC(C(=O)NS(=O)(=O)Cc3ccc(F)cc3F)C(CCC(=O)OCc3ccccc3)C2)nc1C` (stereo not shown) [Example 29, Ethyl 6-(3-[3-(benzyloxy)-3-oxopropyl]-4-{[(2,4-difluorobenzyl)sulfonyl]carbamoyl}piperidin-1-yl)-5-cyano-2-methylnicotinate] stands 0.382 µM.
On the same count and under the same terms, under `CCOC(=O)c1cc(C#N)c(N2CCC(C(=O)NS(=O)(=O)Cc3ccccc3)C(CCC(=O)O)C2)nc1C` (stereo not shown) [Example 30, 3-{4-[(Benzylsulfonyl)carbamoyl]-1-[3-cyano-5-(ethoxycarbonyl)-6-methylpyridin-2-yl]piperidin-3-yl}propanoic Acid] stands 0.057 µM.
Still for that read-out and setting: the value for “Ethyl 6-(4-{[(4-chloro-2-fluorobenzyl)sulfonyl]carbamoyl}piperidin-1-yl)-5-cyano-2-ethylnicotinate [Example 19]” was 0.01 µM.
